# From patent US7192906B2, “Substituted pyrazole derivatives, production process thereof, and herbicide compositions containing the derivatives” (SDS Biotech K.K., priority 2001, dated 2007)
# Assays:
# Type in all cases: in vivo
# Monochoria vaginalis = experiment: Test Example 3 paddy field treatment; conditions: active ingredient 1 kg per hectare, index 0-5
# Outline: (§1)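 Scoring used a 0–5 scale of herbicidal effect or phytotoxicity, from <10% to ≥90%, taken 21 days after treatment. Treatment was 1 kg a.i./ha as diluted wettable powder dripped onto 4 cm-deep flooded pots sown with the weeds, 10 days after transplanting two-leaf Koshihikari rice.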
# Ammannia multiflora = experiment: Test Example 3 paddy field treatment; conditions: active ingredient 1 kg per hectare, index 0-5
# Outline: as §1
# Echinochloa crusgalli = experiment: Test Example 3 paddy field treatment; conditions: active ingredient 1 kg per hectare, index 0-5
# Outline: as §1
# Scirpus juncoides = experiment: Test Example 3 paddy field treatment; conditions: active ingredient 1 kg per hectare, index 0-5
# Outline: as §1
# [1] = system: wheat (Triticum aestivum); experiment: Test Example 1 upland field foliage treatment, crop phytotoxicity; conditions: Table 4, upland field foliage treatment, index 0-5
# Outline: (§2)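 Post-emergence foliar spray, 1 kg a.i./ha, wettable powder diluted in water, applied 14 d after sowing in upland soil. Rating 21 d post-application, 0–5 scale: 5 ≥90%, 4 70–<90%, 3 50–<70%, 2 30–<50%, 1 10–<30%, 0 <10% effect or injury.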
# soybean (Glycine max) [2] = experiment: as above; conditions: Table 4, upland field foliage treatment, index 0-5
# Outline: as §2
# Stellaria media [3] = experiment: Test Example 1 upland field foliage treatment; conditions: Table 4, upland field foliage treatment, index 0-5
# Outline: as §2
# Setaria viridis [4] = experiment: Test Example 1 upland field foliage treatment; conditions: Table 4, upland field foliage treatment, index 0-5
# Outline: as §2
# Chenopodium album [5] = experiment: Test Example 1 upland field foliage treatment; conditions: Table 4, upland field foliage treatment, index 0-5
# Outline: as §2
# Digitaria adscendens [6] = experiment: Test Example 1 upland field foliage treatment; conditions: Table 4, upland field foliage treatment, index 0-5
# Outline: as §2
# Rice (Oryza sativa) = experiment: Test Example 3 paddy field treatment, crop phytotoxicity; conditions: active ingredient 1 kg per hectare, index 0-5; for Herbicidal activity OS (phytotoxicity to rice): paddy field treatment, transplanted rice Koshihikari, wettable powder, 21st day after the dropping; for Herbicidal activity (phytotoxicity) OS: Table 6, paddy field treatment, transplanted rice, 21st day after dropping
# Outline: as §1
# [7] = system: wheat (Triticum aestivum); experiment: Test Example 2 upland soil treatment, crop phytotoxicity; conditions: Table 5, upland soil treatment, index 0-5
# Outline: (§3)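 Seeds are sown into upland soil and covered by roughly 1 cm of soil, then the compound, formulated as a wettable powder and diluted with water, is applied uniformly to the soil surface the following day at 1 kg active ingredient per hectare. Herbicidal effect or phytotoxicity is graded 0 to 5 after 21 days.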
# soybean (Glycine max) [8] = experiment: as above; conditions: Table 5, upland soil treatment, index 0-5
# Outline: as §3
# Stellaria media [9] = experiment: Test Example 2 upland soil treatment; conditions: Table 5, upland soil treatment, index 0-5
# Outline: as §3
# Setaria viridis [10] = experiment: Test Example 2 upland soil treatment; conditions: Table 5, upland soil treatment, index 0-5
# Outline: as §3
# Chenopodium album [11] = experiment: Test Example 2 upland soil treatment; conditions: Table 5, upland soil treatment, index 0-5
# Outline: as §3
# Digitaria adscendens [12] = experiment: Test Example 2 upland soil treatment; conditions: Table 5, upland soil treatment, index 0-5
# Outline: as §3
# [13] = paddy field treatment, wettable powder, 21st day after the dropping
# [14] = Table 6, paddy field treatment, 21st day after dropping
smiles,measurement,setting,value
CNC(=O)C(Cn1cc(C)c(-c2ccc(F)cc2)n1)=NOC [Compound 44],Herbicidal activity MV,Monochoria vaginalis; [13],"5 (herbicidal effect of not less than 90%, or phytotoxicity of 90% or more)"
same,Herbicidal activity AM,Ammannia multiflora; [13],"5 (herbicidal effect of not less than 90%, or phytotoxicity of 90% or more)"
same,Herbicidal activity EC,Echinochloa crusgalli; [13],"5 (herbicidal effect of not less than 90%, or phytotoxicity of 90% or more)"
same,Herbicidal activity SJ,Scirpus juncoides; [13],"5 (herbicidal effect of not less than 90%, or phytotoxicity of 90% or more)"
same,Herbicidal activity (phytotoxicity) TA: Wheat (Triticum aestivum),[1],"0 (herbicidal effect of not less than 0% and less than 10%, or phytotoxicity of 0% or more and less than 10%)"
same,Herbicidal activity (phytotoxicity) GM: Soybean (Glycine max),soybean (Glycine max) [2],"0 (herbicidal effect of not less than 0% and less than 10%, or phytotoxicity of 0% or more and less than 10%)"
same,Herbicidal activity SM: Stellaria media,Stellaria media [3],"5 (herbicidal effect of not less than 90%, or phytotoxicity of 90% or more)"
same,Herbicidal activity SV: Setaria viridis,Setaria viridis [4],"5 (herbicidal effect of not less than 90%, or phytotoxicity of 90% or more)"
same,Herbicidal activity CA: Chenopodium album,Chenopodium album [5],"5 (herbicidal effect of not less than 90%, or phytotoxicity of 90% or more)"
same,Herbicidal activity DA: Digitaria adscendens,Digitaria adscendens [6],"5 (herbicidal effect of not less than 90%, or phytotoxicity of 90% or more)"
same,Herbicidal activity OS (phytotoxicity to rice),Rice (Oryza sativa),"1 (herbicidal effect of not less than 10% and less than 30%, or phytotoxicity of 10% or more and less than 30%)"
same,Herbicidal activity (phytotoxicity) TA: Wheat (Triticum aestivum),[7],"0 (herbicidal effect of not less than 0% and less than 10%, or phytotoxicity of 0% or more and less than 10%)"
same,Herbicidal activity (phytotoxicity) GM: Soybean (Glycine max),soybean (Glycine max) [8],"0 (herbicidal effect of not less than 0% and less than 10%, or phytotoxicity of 0% or more and less than 10%)"
same,Herbicidal activity SM: Stellaria media,Stellaria media [9],"5 (herbicidal effect of not less than 90%, or phytotoxicity of 90% or more)"
same,Herbicidal activity SV: Setaria viridis,Setaria viridis [10],"5 (herbicidal effect of not less than 90%, or phytotoxicity of 90% or more)"
same,Herbicidal activity CA: Chenopodium album,Chenopodium album [11],"5 (herbicidal effect of not less than 90%, or phytotoxicity of 90% or more)"
same,Herbicidal activity DA: Digitaria adscendens,Digitaria adscendens [12],"5 (herbicidal effect of not less than 90%, or phytotoxicity of 90% or more)"
CNC(=O)C(Cn1cc(C)c(-c2ccc(C=NOC)cc2)n1)=NOC [Compound 111],Herbicidal activity MV,Monochoria vaginalis; [14],"5 (herbicidal effect of not less than 90%, or phytotoxicity of 90% or more)"
same,Herbicidal activity AM,Ammannia multiflora; [14],"5 (herbicidal effect of not less than 90%, or phytotoxicity of 90% or more)"
same,Herbicidal activity EC,Echinochloa crusgalli; [14],"5 (herbicidal effect of not less than 90%, or phytotoxicity of 90% or more)"
same,Herbicidal activity SJ,Scirpus juncoides; [14],"5 (herbicidal effect of not less than 90%, or phytotoxicity of 90% or more)"
same,Herbicidal activity (phytotoxicity) TA: Wheat (Triticum aestivum),[1],"0 (herbicidal effect of not less than 0% and less than 10%, or phytotoxicity of 0% or more and less than 10%)"
same,Herbicidal activity (phytotoxicity) GM: Soybean (Glycine max),soybean (Glycine max) [2],"0 (herbicidal effect of not less than 0% and less than 10%, or phytotoxicity of 0% or more and less than 10%)"
same,Herbicidal activity SM: Stellaria media,Stellaria media [3],"5 (herbicidal effect of not less than 90%, or phytotoxicity of 90% or more)"
same,Herbicidal activity SV: Setaria viridis,Setaria viridis [4],"4 (herbicidal effect of not less than 70% and less than 90%, or phytotoxicity of 70% or more and less than 90%)"
same,Herbicidal activity CA: Chenopodium album,Chenopodium album [5],"5 (herbicidal effect of not less than 90%, or phytotoxicity of 90% or more)"
same,Herbicidal activity DA: Digitaria adscendens,Digitaria adscendens [6],"4 (herbicidal effect of not less than 70% and less than 90%, or phytotoxicity of 70% or more and less than 90%)"
same,Herbicidal activity (phytotoxicity) OS,Rice (Oryza sativa),"0 (herbicidal effect of not less than 0% and less than 10%, or phytotoxicity of 0% or more and less than 10%)"
same,Herbicidal activity (phytotoxicity) TA: Wheat (Triticum aestivum),[7],"0 (herbicidal effect of not less than 0% and less than 10%, or phytotoxicity of 0% or more and less than 10%)"
same,Herbicidal activity (phytotoxicity) GM: Soybean (Glycine max),soybean (Glycine max) [8],"0 (herbicidal effect of not less than 0% and less than 10%, or phytotoxicity of 0% or more and less than 10%)"
same,Herbicidal activity SM: Stellaria media,Stellaria media [9],"5 (herbicidal effect of not less than 90%, or phytotoxicity of 90% or more)"
same,Herbicidal activity SV: Setaria viridis,Setaria viridis [10],"4 (herbicidal effect of not less than 70% and less than 90%, or phytotoxicity of 70% or more and less than 90%)"
same,Herbicidal activity CA: Chenopodium album,Chenopodium album [11],"5 (herbicidal effect of not less than 90%, or phytotoxicity of 90% or more)"
same,Herbicidal activity DA: Digitaria adscendens,Digitaria adscendens [12],"4 (herbicidal effect of not less than 70% and less than 90%, or phytotoxicity of 70% or more and less than 90%)"
CNC(=O)C(Cn1cc(C)c(-c2cc(F)ccc2F)n1)=NOC [Compound 57],Herbicidal activity MV,Monochoria vaginalis; [14],"5 (herbicidal effect of not less than 90%, or phytotoxicity of 90% or more)"
same,Herbicidal activity AM,Ammannia multiflora; [14],"5 (herbicidal effect of not less than 90%, or phytotoxicity of 90% or more)"
same,Herbicidal activity EC,Echinochloa crusgalli; [14],"5 (herbicidal effect of not less than 90%, or phytotoxicity of 90% or more)"
same,Herbicidal activity SJ,Scirpus juncoides; [14],"5 (herbicidal effect of not less than 90%, or phytotoxicity of 90% or more)"
same,Herbicidal activity (phytotoxicity) TA: Wheat (Triticum aestivum),[1],"0 (herbicidal effect of not less than 0% and less than 10%, or phytotoxicity of 0% or more and less than 10%)"
same,Herbicidal activity (phytotoxicity) GM: Soybean (Glycine max),soybean (Glycine max) [2],"0 (herbicidal effect of not less than 0% and less than 10%, or phytotoxicity of 0% or more and less than 10%)"
same,Herbicidal activity SM: Stellaria media,Stellaria media [3],"5 (herbicidal effect of not less than 90%, or phytotoxicity of 90% or more)"
same,Herbicidal activity SV: Setaria viridis,Setaria viridis [4],"5 (herbicidal effect of not less than 90%, or phytotoxicity of 90% or more)"
same,Herbicidal activity CA: Chenopodium album,Chenopodium album [5],"5 (herbicidal effect of not less than 90%, or phytotoxicity of 90% or more)"
same,Herbicidal activity DA: Digitaria adscendens,Digitaria adscendens [6],"5 (herbicidal effect of not less than 90%, or phytotoxicity of 90% or more)"
same,Herbicidal activity (phytotoxicity) OS,Rice (Oryza sativa),"0 (herbicidal effect of not less than 0% and less than 10%, or phytotoxicity of 0% or more and less than 10%)"
same,Herbicidal activity (phytotoxicity) TA: Wheat (Triticum aestivum),[7],"0 (herbicidal effect of not less than 0% and less than 10%, or phytotoxicity of 0% or more and less than 10%)"
same,Herbicidal activity (phytotoxicity) GM: Soybean (Glycine max),soybean (Glycine max) [8],"0 (herbicidal effect of not less than 0% and less than 10%, or phytotoxicity of 0% or more and less than 10%)"
same,Herbicidal activity SM: Stellaria media,Stellaria media [9],"5 (herbicidal effect of not less than 90%, or phytotoxicity of 90% or more)"
same,Herbicidal activity SV: Setaria viridis,Setaria viridis [10],"5 (herbicidal effect of not less than 90%, or phytotoxicity of 90% or more)"
same,Herbicidal activity CA: Chenopodium album,Chenopodium album [11],"5 (herbicidal effect of not less than 90%, or phytotoxicity of 90% or more)"
same,Herbicidal activity DA: Digitaria adscendens,Digitaria adscendens [12],"5 (herbicidal effect of not less than 90%, or phytotoxicity of 90% or more)"
"CON=C(Cn1cc(C)c(-c2ccccc2)n1)C(=O)NC1CC1 [Compound 21, 2-methoxyimino-3-(phenyl-4-methyl-pyrazole)-1-yl-propanoic acid-N-cyclopropylamide]",Herbicidal activity MV,Monochoria vaginalis; [13],"5 (herbicidal effect of not less than 90%, or phytotoxicity of 90% or more)"
same,Herbicidal activity AM,Ammannia multiflora; [13],"5 (herbicidal effect of not less than 90%, or phytotoxicity of 90% or more)"
same,Herbicidal activity EC,Echinochloa crusgalli; [13],"5 (herbicidal effect of not less than 90%, or phytotoxicity of 90% or more)"
same,Herbicidal activity SJ,Scirpus juncoides; [13],"5 (herbicidal effect of not less than 90%, or phytotoxicity of 90% or more)"
same,Herbicidal activity (phytotoxicity) TA: Wheat (Triticum aestivum),[1],"0 (herbicidal effect of not less than 0% and less than 10%, or phytotoxicity of 0% or more and less than 10%)"
same,Herbicidal activity (phytotoxicity) GM: Soybean (Glycine max),soybean (Glycine max) [2],"0 (herbicidal effect of not less than 0% and less than 10%, or phytotoxicity of 0% or more and less than 10%)"
same,Herbicidal activity SM: Stellaria media,Stellaria media [3],"5 (herbicidal effect of not less than 90%, or phytotoxicity of 90% or more)"
same,Herbicidal activity SV: Setaria viridis,Setaria viridis [4],"5 (herbicidal effect of not less than 90%, or phytotoxicity of 90% or more)"
same,Herbicidal activity CA: Chenopodium album,Chenopodium album [5],"5 (herbicidal effect of not less than 90%, or phytotoxicity of 90% or more)"
same,Herbicidal activity DA: Digitaria adscendens,Digitaria adscendens [6],"5 (herbicidal effect of not less than 90%, or phytotoxicity of 90% or more)"
same,Herbicidal activity OS (phytotoxicity to rice),Rice (Oryza sativa),"0 (herbicidal effect of not less than 0% and less than 10%, or phytotoxicity of 0% or more and less than 10%)"
same,Herbicidal activity (phytotoxicity) TA: Wheat (Triticum aestivum),[7],"0 (herbicidal effect of not less than 0% and less than 10%, or phytotoxicity of 0% or more and less than 10%)"
same,Herbicidal activity (phytotoxicity) GM: Soybean (Glycine max),soybean (Glycine max) [8],"0 (herbicidal effect of not less than 0% and less than 10%, or phytotoxicity of 0% or more and less than 10%)"
same,Herbicidal activity SM: Stellaria media,Stellaria media [9],"5 (herbicidal effect of not less than 90%, or phytotoxicity of 90% or more)"
same,Herbicidal activity SV: Setaria viridis,Setaria viridis [10],"4 (herbicidal effect of not less than 70% and less than 90%, or phytotoxicity of 70% or more and less than 90%)"
same,Herbicidal activity CA: Chenopodium album,Chenopodium album [11],"5 (herbicidal effect of not less than 90%, or phytotoxicity of 90% or more)"
same,Herbicidal activity DA: Digitaria adscendens,Digitaria adscendens [12],"4 (herbicidal effect of not less than 70% and less than 90%, or phytotoxicity of 70% or more and less than 90%)"
